In ChEMBL document CHEMBL4229475, “Synthesis of novel imidazopyridines and their biological evaluation as potent anticancer agents: A promising candidate for glioblastoma” (Bioorg Med Chem Lett, 2018):
The source made the active and inactive calls. No cut-off for these calls is given here.

Key:
LN-405 [1] = test: Cytotoxicity against human LN405 cells assessed as decrease in cell viability at 100 uM after 96 hrs by MTT assay; format: functional, cell-based
LN-405 [2] = test: Cytotoxicity against human LN405 cells assessed as cell viability at 100 uM after 96 hrs by MTT assay relative to control; format: functional; details: LN-405, 96 h, read-out: Activity
LN-405 [3] = test: Cytotoxicity against human LN405 cells assessed as decrease in cell viability after 96 hrs by MTT assay; format: functional, cell-based; details: LN-405, 96 h
LN-405 [4] = test: Induction of DNA damage in human LN405 cells assessed as cell with damage DNA at IC50 after 72 hrs by COMET assay (reference value: 0.7%); format: functional
[5] = Cytotoxicity against human WS1 cells assessed as decrease in cell viability after 96 hrs by MTT assay; format: cell-based; details: WS1, 96 h
LN-405 [6] = test: Cell cycle arrest in human LN405 cells assessed as accumulation at G0/G1 phase at IC50 after 72 hrs by propidium iodide staining-based flow cytometric method relative to control; format: functional
LN-405 [7] = test: Cell cycle arrest in human LN405 cells assessed as decrease in cell levels at S phase at IC50 after 72 hrs by propidium iodide staining-based flow cytometric method; format: functional

CC1CCN(c2cc(-c3ccc(-c4ccccc4)cc3)c3nc(-c4ccc(-c5ccccc5)cc4)cn3c2)CC1
Activity (LN-405 [1]): inactive

CC1CCN(c2cc(-c3ccc(F)cc3)c3nc(-c4ccc(F)cc4)cn3c2)CC1
viability at 100 µM (LN-405 [2]): 32%
IC50 (LN-405 [3]): 75 µM
Activity (LN-405 [4]): 0.9%
IC50 [5]: 844 µM
Activity (LN-405 [6]): 98.2%
Activity (LN-405 [7]): Active

COc1ccc(-c2cn3cc(N4CCC(C)CC4)cc(-c4ccc(OC)cc4)c3n2)cc1
viability at 100 µM (LN-405 [2]): 80%

CC1CCN(c2cc(-c3cccs3)c3nc(-c4cccs4)cn3c2)CC1
Activity (LN-405 [1]): inactive

CC1CCN(c2cc(-c3ccc(Br)cc3)c3nc(-c4ccc(Br)cc4)cn3c2)CC1
Activity (LN-405 [1]): inactive

CC1CCN(c2cc(-c3ccc(Br)s3)c3nc(-c4ccc(Br)s4)cn3c2)CC1
Activity (LN-405 [1]): inactive

CC1CCN(c2cc(-c3ccc4ccccc4c3)c3nc(-c4ccc5ccccc5c4)cn3c2)CC1
Activity (LN-405 [1]): inactive

CC1CCN(c2cc(-c3ccccc3)c3nc(-c4ccccc4)cn3c2)CC1
viability at 100 µM (LN-405 [2]): 6%
IC50 (LN-405 [3]): 10 µM
Activity (LN-405 [4]): 14%
IC50 [5]: 480 µM
Activity (LN-405 [6]): 99.2%
Activity (LN-405 [7]): Active
